Results: patent US10745384B2, “Indazole derivatives as αv integrin antagonists” (BRISTOL-MYERS SQUIBB COMPANY, priority 2016, dated 2020)
Where a name gives a salt, the structure may show the parent alone.

Tests used:
human αVβ3 = human αVβ3 (Homo sapiens, UniProt P05106+P06756); assay: human αVβ3 HTRF binding assay
Method: (§1) All binding assays used the HTRF (homogeneous time resolved fluorescence) technology from Cisbio International, therefore all assays are described as HTRF binding assays. The assay results for the Examples are listed above together with the characterization data. The HTRF binding assays are established for the following integrins: human αVβ6, human αVβ1, human αVβ3, human αVβ5, and human αVβ8. All assays used the following assay buffer: 20 mM Tris, pH 7.4, 1 mM MgCl2, 1 mM MnCl2, 0.01% Tween 20, and 0.01% BSA. Alternatively, a SPA-based assay was used for evaluation of receptor binding.
(§2) The following describes the components and a representative procedure for the human αVβ6 HTRF binding assay: Recombinant human αVβ6 Integrin (R & D systems, 3817-AV) was biotinylated. Biotinylated human αVβ6 Integrin was added to assay vessel at a final concentration of 1.25 nM. FITC-conjugated fibronectin (Cytoskeleton, FNR02) was then added at the final concentration of 5 nM. The mixture was centrifuged at 600 rpm for three minutes using Thermo Fisher Heraeus Multifuge X3 centrifuge and then incubated at room temperature for an hour. Streptavidin Terbium (Cisbio international 610STLB) was then added at the final concentration of 0.625 nM. The resulting mixture was centrifuged at 600 rpm for three minutes using Thermo Fisher Heraeus Multifuge X3 centrifuge and then incubated at room temperature overnight in dark before reading HTRF signals. […]

human αVβ6 = target: T1, human αVβ6 (Homo sapiens, UniProt P06756+P18564); assay: human αVβ6 HTRF binding assay; details: recombinant human αVβ6 integrin, FITC-conjugated fibronectin
T1 construct: purchased R & D systems 3817-AV
T1 sequence (P06756 31-992 limits assumed): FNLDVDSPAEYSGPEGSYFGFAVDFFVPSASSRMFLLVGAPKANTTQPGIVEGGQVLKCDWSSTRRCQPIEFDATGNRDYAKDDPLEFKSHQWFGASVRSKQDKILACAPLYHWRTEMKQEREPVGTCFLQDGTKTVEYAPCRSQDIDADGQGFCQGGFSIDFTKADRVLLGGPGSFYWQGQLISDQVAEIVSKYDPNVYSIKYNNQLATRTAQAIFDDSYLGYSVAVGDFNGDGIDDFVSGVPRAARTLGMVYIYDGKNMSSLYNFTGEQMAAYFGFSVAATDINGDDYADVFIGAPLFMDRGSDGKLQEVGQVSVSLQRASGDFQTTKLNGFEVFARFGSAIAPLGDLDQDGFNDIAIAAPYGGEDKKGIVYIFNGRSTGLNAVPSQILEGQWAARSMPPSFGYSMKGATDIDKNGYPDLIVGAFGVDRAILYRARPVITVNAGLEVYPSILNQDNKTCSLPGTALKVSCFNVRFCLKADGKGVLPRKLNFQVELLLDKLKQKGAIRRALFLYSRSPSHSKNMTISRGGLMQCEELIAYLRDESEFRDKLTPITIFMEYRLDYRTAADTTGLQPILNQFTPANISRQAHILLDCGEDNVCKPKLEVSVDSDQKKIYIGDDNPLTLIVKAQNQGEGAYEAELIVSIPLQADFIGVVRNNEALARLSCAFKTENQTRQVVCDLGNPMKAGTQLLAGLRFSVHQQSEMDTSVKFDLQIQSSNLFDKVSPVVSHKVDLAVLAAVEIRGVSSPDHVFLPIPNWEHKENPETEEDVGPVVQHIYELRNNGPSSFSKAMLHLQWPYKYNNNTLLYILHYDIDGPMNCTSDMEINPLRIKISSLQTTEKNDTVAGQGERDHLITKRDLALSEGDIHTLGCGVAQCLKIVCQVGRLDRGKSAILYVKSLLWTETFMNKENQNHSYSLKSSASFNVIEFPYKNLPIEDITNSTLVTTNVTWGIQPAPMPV
T1 sequence (P18564 22-707 limits assumed): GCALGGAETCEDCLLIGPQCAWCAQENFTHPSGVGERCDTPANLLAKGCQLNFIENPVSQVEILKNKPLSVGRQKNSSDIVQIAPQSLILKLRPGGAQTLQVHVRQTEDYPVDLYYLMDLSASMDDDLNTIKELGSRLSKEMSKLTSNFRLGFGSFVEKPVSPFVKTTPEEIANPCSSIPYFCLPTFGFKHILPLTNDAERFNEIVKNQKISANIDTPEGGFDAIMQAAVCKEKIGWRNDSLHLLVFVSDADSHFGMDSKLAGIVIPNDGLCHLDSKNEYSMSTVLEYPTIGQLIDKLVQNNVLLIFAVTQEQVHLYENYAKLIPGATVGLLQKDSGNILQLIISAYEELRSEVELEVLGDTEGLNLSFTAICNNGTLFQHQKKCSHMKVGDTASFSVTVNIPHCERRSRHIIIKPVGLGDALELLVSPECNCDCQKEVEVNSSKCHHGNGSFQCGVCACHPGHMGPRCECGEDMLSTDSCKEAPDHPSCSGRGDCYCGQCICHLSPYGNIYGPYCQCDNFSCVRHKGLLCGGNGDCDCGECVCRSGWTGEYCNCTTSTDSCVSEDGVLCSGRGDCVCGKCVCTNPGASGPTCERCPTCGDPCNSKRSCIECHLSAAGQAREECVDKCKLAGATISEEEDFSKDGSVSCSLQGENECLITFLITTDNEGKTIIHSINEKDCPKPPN
Summary of the method: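 HTRF binding in 20 mM Tris pH 7.4 with 1 mM MgCl2, 1 mM MnCl2, 0.01% Tween 20 and 0.01% BSA. For αVβ6, biotinylated integrin (1.25 nM) and FITC-fibronectin (5 nM) were incubated 1 h at RT, then streptavidin-terbium (0.625 nM) was added overnight in the dark. An SPA-based fibronectin binding format was an alternative.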

human αVβ8 = human αVβ8 (Homo sapiens, UniProt P06756+P26012); assay: human αVβ8 HTRF binding assay
Sequence of human αVβ8 (P06756 31-992 limits assumed): as the sequence (P06756 31-992 limits assumed) above
Sequence of human αVβ8 (P26012 43-684 limits assumed): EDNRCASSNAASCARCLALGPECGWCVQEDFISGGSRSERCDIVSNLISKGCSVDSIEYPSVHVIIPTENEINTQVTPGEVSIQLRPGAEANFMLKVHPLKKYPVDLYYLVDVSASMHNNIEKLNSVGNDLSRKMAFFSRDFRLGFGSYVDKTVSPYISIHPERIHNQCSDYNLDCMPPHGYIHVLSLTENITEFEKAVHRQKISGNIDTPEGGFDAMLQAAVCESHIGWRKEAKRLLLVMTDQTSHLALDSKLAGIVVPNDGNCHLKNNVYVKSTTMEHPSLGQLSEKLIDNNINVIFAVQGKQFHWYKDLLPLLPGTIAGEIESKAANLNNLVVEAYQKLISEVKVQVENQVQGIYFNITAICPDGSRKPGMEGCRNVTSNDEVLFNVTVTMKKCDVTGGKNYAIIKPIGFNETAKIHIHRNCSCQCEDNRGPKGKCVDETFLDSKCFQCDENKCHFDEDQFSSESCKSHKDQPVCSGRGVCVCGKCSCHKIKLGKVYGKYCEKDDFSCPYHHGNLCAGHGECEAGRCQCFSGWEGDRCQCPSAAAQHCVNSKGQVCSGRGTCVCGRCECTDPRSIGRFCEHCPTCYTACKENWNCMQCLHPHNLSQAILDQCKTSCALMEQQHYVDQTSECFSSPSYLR
Method: as §1, §2

human αVβ1 = human αVβ1 (Homo sapiens, UniProt P05556+P06756); assay: human αVβ1 HTRF binding assay
Sequence of human αVβ1 (P06756 31-992 limits assumed): as the sequence (P06756 31-992 limits assumed) above
Sequence of human αVβ1 (P05556 21-728 limits assumed): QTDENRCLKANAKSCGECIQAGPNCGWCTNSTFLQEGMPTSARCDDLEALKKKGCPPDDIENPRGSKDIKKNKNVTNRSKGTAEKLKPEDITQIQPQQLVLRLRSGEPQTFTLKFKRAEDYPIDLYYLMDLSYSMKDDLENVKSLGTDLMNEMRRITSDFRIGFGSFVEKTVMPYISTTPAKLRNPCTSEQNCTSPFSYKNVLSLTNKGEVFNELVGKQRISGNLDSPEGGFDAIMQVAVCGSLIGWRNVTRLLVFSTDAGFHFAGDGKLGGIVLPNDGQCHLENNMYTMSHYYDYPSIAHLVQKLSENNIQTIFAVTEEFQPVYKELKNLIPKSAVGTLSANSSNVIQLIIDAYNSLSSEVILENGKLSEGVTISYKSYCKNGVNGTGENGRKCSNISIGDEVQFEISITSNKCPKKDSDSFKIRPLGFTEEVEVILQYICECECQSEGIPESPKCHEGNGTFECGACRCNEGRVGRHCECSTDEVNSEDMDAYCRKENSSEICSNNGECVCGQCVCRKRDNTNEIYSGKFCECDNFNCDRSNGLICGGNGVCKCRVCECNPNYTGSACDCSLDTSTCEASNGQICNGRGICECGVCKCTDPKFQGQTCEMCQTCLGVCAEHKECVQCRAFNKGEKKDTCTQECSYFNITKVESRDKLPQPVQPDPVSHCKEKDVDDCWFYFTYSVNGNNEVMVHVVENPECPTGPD
Method: as §1
The following describes the components and a representative procedure for the human αVβ6 HTRF binding assay: Recombinant human αVβ6 Integrin (R & D systems, 3817-AV) was biotinylated. Biotinylated human αVβ6 Integrin was added to assay vessel at a final concentration of 1.25 nM. FITC-conjugated fibronectin (Cytoskeleton, FNR02) was then added at the final concentration of 5 nM. The mixture was centrifuged at 600 rpm for three minutes using Thermo Fisher Heraeus Multifuge X3 centrifuge and then incubated at room temperature for an hour. Streptavidin Terbium (Cisbio international 610STLB) was then added at the final concentration of 0.625 nM. The resulting mixture was centrifuged at 600 rpm for three minutes using Thermo Fisher Heraeus Multifuge X3 centrifuge and then incubated at room temperature overnight in dark before reading HTRF signals.
The SPA-based assay was carried out according to the protocol and procedures similar to the ones described in the following reference with appropriate modifications to agents and ligands which are readily understood by one skilled in the art: Pachter J A, Zhang R, Mayer-Ezell R., “Scintillation proximity assay to measure binding of soluble fibronectin to antibody-captured αVβ1 integrin” Anal Biochem. 1995 Sep. 1; 230(1):101-7.

human αVβ5 = human αVβ5 (Homo sapiens, UniProt P06756+P18084); assay: human αVβ5 HTRF binding assay
Sequence of human αVβ5 (P06756 31-992 limits assumed): as the sequence (P06756 31-992 limits assumed) above
Sequence of human αVβ5 (P18084 24-719 limits assumed): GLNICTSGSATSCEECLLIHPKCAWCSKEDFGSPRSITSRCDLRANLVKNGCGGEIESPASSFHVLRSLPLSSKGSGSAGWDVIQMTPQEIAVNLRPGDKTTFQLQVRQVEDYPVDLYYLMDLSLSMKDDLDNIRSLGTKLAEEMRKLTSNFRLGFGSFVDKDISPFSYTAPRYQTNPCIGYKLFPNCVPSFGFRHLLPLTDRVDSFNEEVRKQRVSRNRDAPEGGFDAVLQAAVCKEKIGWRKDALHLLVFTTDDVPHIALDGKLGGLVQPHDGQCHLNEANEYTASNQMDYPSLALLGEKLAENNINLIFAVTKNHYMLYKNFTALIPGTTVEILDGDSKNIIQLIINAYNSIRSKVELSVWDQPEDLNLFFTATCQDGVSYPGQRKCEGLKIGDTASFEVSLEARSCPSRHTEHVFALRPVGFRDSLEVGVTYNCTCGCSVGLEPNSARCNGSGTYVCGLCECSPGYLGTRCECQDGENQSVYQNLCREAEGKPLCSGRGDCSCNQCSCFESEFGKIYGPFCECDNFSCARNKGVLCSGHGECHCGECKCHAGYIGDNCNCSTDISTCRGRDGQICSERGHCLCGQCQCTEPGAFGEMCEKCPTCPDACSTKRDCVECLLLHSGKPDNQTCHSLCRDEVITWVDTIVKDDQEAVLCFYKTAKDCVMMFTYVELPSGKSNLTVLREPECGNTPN
Method: as §1, §2

Sequence of human αVβ3 (P06756 31-992 limits assumed): as the sequence (P06756 31-992 limits assumed) above
Sequence of human αVβ3 (P05106 27-718 limits assumed): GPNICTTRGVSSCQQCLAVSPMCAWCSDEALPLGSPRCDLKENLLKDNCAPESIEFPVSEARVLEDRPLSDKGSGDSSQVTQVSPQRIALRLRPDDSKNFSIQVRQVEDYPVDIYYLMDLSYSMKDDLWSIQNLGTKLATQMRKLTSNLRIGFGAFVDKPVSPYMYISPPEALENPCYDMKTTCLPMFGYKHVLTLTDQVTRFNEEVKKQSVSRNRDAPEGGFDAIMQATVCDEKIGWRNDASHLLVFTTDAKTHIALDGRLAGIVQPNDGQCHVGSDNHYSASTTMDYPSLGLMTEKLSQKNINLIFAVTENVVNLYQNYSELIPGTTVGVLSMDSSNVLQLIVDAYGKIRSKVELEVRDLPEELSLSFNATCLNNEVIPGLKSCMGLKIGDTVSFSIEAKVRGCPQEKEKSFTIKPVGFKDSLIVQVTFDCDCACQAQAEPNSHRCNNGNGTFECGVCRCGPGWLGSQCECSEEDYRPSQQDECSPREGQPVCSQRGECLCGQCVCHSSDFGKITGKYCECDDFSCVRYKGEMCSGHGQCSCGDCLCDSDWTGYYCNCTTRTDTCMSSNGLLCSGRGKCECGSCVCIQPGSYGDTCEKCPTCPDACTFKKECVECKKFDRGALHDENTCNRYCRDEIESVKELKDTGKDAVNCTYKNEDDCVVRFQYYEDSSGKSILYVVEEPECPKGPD

Row | Compound | IC50 (human αVβ3) | IC50 (human αVβ6) | IC50 (human αVβ8) | IC50 (human αVβ1) | IC50 (human αVβ5)
1 | O=C(O)C[C@@H](c1cncc(CO)c1)n1ncc2cc(OCCc3ccc4c(n3)NCCC4)ccc21 [Example 100, (5)-3-(5-(Hydroxymethyl)pyridin-3-yl)-3-(5-(2-(5,6,7,8-tetrahydro-1,8-naphthyridin-2-yl)ethoxy)-1H-indazol-1-yl)propanoic acid] | 2.9 nM | 14 nM | 4400 nM | 140 nM | 0.41 nM
2 | CCOc1ncc(C(CC(=O)O)n2ncc3cc(OCCc4ccc5c(n4)NCCC5)ccc32)cn1 (centres unmarked) [Example 77, 3-(2-Ethoxypyrimidin-5-yl)-3-(5-(2-(5,6,7,8-tetrahydro-1,8-naphthyridin-2-yl)ethoxy)-1H-indazol-1-yl)propanoic acid, TFA] | 2.8 nM | 5.8 nM | 5000 nM | 170 nM | 0.39 nM
3 | O=C(O)CC(c1cnc(N2CCC2)nc1)n1ncc2cc(OCCc3ccc4c(n3)NCCC4)ccc21 (centres unmarked) [Example 119, 3-(2-(Azetidin-1-yl)pyrimidin-5-yl)-3-(5-(2-(5,6,7,8-tetrahydro-1,8-naphthyridin-2-yl)ethoxy)-1H-indazol-1-yl)propanoic acid, 2 TFA] | 1.4 nM | 10.6 nM | 4400 nM | 98 nM | 0.6 nM
4 | O=C(O)CC(c1cnc2c(c1)OCCN2)n1ncc2cc(OCCc3ccc4c(n3)NCCC4)ccc21 (centres unmarked) [Example 97, TFA] | 2.6 nM | 10 nM | 5000 nM | 100 nM | 0.59 nM
5 | COc1ncc([C@H](CC(=O)O)n2cc3ccc(CCc4ccc5c(n4)NCCC5)cc3n2)cn1 [Example 118, (5)-3-(2-Methoxypyrimidin-5-yl)-3-(6-(2-(5,6,7,8-tetrahydro-1,8-naphthyridin-2-yl)ethyl)-2H-indazol-2-yl)propanoic acid] | 2 nM | 12 nM | 3100 nM | 4300 nM | 1.1 nM
6 | O=C(O)CC(c1cnc2c(c1)OCCO2)n1ncc2cc(OCCc3ccc4c(n3)NCCC4)ccc21 (centres unmarked) [Example 109, 3-(2,3-Dihydro-[1,4]dioxino[2,3-b]pyridin-7-yl)-3-(5-(2-(5,6,7,8-tetrahydro-1,8-naphthyridin-2-yl)ethoxy)-1H-indazol-1-yl)propanoic acid, 2 TFA] | 1.3 nM | 15 nM | 9300 nM | 62 nM | 
7 | O=C(O)CC(c1cncc(N2CCCC2=O)c1)n1ncc2cc(OCCc3ccc4c(n3)NCCC4)ccc21 (centres unmarked) [Example 102, 3-(5-(2-Oxopyrrolidin-1-yl)pyridin-3-yl)-3-(5-(2-(5,6,7,8-tetrahydro-1,8-naphthyridin-2-yl)ethoxy)-1H-indazol-1-yl)propanoic acid, 2 TFA] | 2.2 nM | 4.3 nM | 1300 nM | 39 nM | 
8 | O=C(O)CC(c1cnc2ncccc2c1)n1ncc2cc(OCCc3ccc4c(n3)NCCC4)ccc21 (centres unmarked) [Example 101, 3-(1,8-Naphthyridin-3-yl)-3-(5-(2-(5,6,7,8-tetrahydro-1,8-naphthyridin-2-yl)ethoxy)-1H-indazol-1-yl)propanoic acid, 2 TFA] | 1.6 nM | 5.7 nM | 2300 nM | 100 nM | 
9 | O=C(O)CC(c1cncc(CO)c1)n1ncc2cc(OCCc3ccc4c(n3)NCCC4)ccc21 (centres unmarked) [Example 89, 3-(5-(Hydroxymethyl)pyridin-3-yl)-3-(5-(2-(5,6,7,8-tetrahydro-1,8-naphthyridin-2-yl)ethoxy)-1H-indazol-1-yl)propanoic acid] | 3.1 nM | 19 nM | 5000 nM | 370 nM | 0.42 nM
10 | CCOc1ncc([C@H](CC(=O)O)n2ncc3cc(OCCc4ccc5c(n4)NCCC5)ccc32)cn1 [Example 107, (S)-3-(2-Ethoxypyrimidin-5-yl)-3-(5-(2-(5,6,7,8-tetrahydro-1,8-naphthyridin-2-yl)ethoxy)-1H-indazol-1-yl)propanoic acid, TFA] | 2.4 nM | 15 nM | 300 nM | 64 nM | 0.32 nM
11 | COc1ccc(C(CC(=O)O)n2ncc3cc(OCCc4ccc5c(n4)NCCC5)ccc32)cn1 (centres unmarked) [Example 34, 3-(6-Methoxypyridin-3-yl)-3-(5-(2-(5,6,7,8-tetrahydro-1,8-naphthyridin-2-yl)ethoxy)-1H-indazol-1-yl)propanoic acid, TFA] | 2.5 nM | 12 nM | 1300 nM | 95 nM | 0.38 nM
12 | CNc1ncc(C(CC(=O)O)n2ncc3cc(OCCc4ccc5c(n4)NCCC5)ccc32)cn1 (centres unmarked) [Example 112, 3-(2-(Methylamino)pyrimidin-5-yl)-3-(5-(2-(5,6,7,8-tetrahydro-1,8-naphthyridin-2-yl)ethoxy)-1H-indazol-1-yl)propanoic acid, 2 TFA] | 2.9 nM | 21 nM | 5000 nM | 93 nM | 
13 | O=C(O)CC(c1cnc2nccnc2c1)n1ncc2cc(OCCc3ccc4c(n3)NCCC4)ccc21 (centres unmarked) [Example 95, 3-(Pyrido[2,3-b]pyrazin-7-yl)-3-(5-(2-(5,6,7,8-tetrahydro-1,8-naphthyridin-2-yl)ethoxy)-1H-indazol-1-yl)propanoic acid, 2 TFA] | 2.4 nM | 30 nM | 7600 nM | 210 nM | 
14 | O=C(O)CC(c1cccc(-n2cccc2)c1)n1ncc2cc(OCCc3ccc4c(n3)NCCC4)ccc21 (centres unmarked) [Example 59, 3-(3-(1H-Pyrrol-1-yl)phenyl)-3-(5-(2-(5,6,7,8-tetrahydro-1,8-naphthyridin-2-yl)ethoxy)-1H-indazol-1-yl)propanoic acid, TFA] |  | 1.2 nM |  |  | 
15 | O=C(O)CC(c1cnc2c(cnn2C2CCCCO2)c1)n1ncc2cc(OCCc3ccc4c(n3)NCCC4)ccc21 (centres unmarked) [Example 103, 3-(5-(2-(5,6,7,8-tetrahydro-1,8-naphthyridin-2-yl)ethoxy)-1H-indazol-1-yl)-3-(1-(tetrahydro-2H-pyran-2-yl)pyrazolo[3,4-b]pyridin-5-yl)propanoic acid, TFA] |  | 5.4 nM |  |  | 
16 | O=C(O)CC(c1cnc2c(c1)OCO2)n1ncc2cc(OCCc3ccc4c(n3)NCCC4)ccc21 (centres unmarked) [Example 132, 3-([1,3]Dioxolo[4,5-b]pyridin-6-yl)-3-(5-(2-(5,6,7,8-tetrahydro-1,8-naphthyridin-2-yl)ethoxy)-1H-indazol-1-yl)propanoic acid] |  | 22 nM |  |  | 
17 | O=C(O)CC(c1ccn2cnnc2c1)n1ncc2cc(OCCc3ccc4c(n3)NCCC4)ccc21 (centres unmarked) [Example 130, 3-([1,2,4]Triazolo[4,3-a]pyridin-7-yl)-3-(5-(2-(5,6,7,8-tetrahydro-1,8-naphthyridin-2-yl)ethoxy)-1H-indazol-1-yl)propanoic acid] |  | 57 nM |  |  | 
18 | O=C(O)CC(c1ccc2oc3ccccc3c2c1)n1ncc2cc(OCCc3ccc4c(n3)NCCC4)ccc21 (centres unmarked) [Example 54, 3-(Dibenzo[b,d]furan-2-yl)-3-(5-(2-(5,6,7,8-tetrahydro-1,8-naphthyridin-2-yl)ethoxy)-1H-indazol-1-yl)propanoic acid, TFA] |  | 30 nM |  |  | 
19 | O=C(O)CC(c1cncc(Cl)c1)n1ncc2cc(OCCc3ccc4c(n3)NCCC4)ccc21 (centres unmarked) [Example 42, 3-(5-Chloropyridin-3-yl)-3-(5-(2-(5,6,7,8-tetrahydro-1,8-naphthyridin-2-yl)ethoxy)-1H-indazol-1-yl)propanoic acid, TFA] |  | 4.4 nM |  |  | 
20 | Cc1ncc([C@@H](CC(=O)O)n2ncc3cc(OCCc4ccc5c(n4)NCCC5)ccc32)cn1 [Example 160, (R)-3-(2-methylpyrimidin-5-yl)-3-(5-(2-(5,6,7,8-tetrahydro-1,8-naphthyridin-2-yl)ethoxy)-1H-indazol-1-yl)propanoic acid] |  | 2600 nM |  |  | 
21 | O=C(O)CC(c1cccs1)n1ncc2cc(OCCc3ccc4c(n3)NCCC4)ccc21 (centres unmarked) [Example 49, 3-(5-(2-(5,6,7,8-Tetrahydro-1,8-naphthyridin-2-yl)ethoxy)-1H-indazol-1-yl)-3-(thiophen-2-yl)propanoic acid, TFA] |  | 33 nM |  |  | 
